Substitutions are numbered along the chain they refer to.
B1: Fc-YTE-hRLX2-15-15AA: As Fc_hRLX2_15-15AA with YTE mutations in Fc; SEQ ID NO. 22 (protein)
chain: DKTHTCPPCPAPELLGGPSVFLFPPKPKDTLYITREPEVTCVVVDVSHEDPEVKFNWYVDGVEVHNAKTKPREEQYNSTYRVVSVLTVLHQDWLNGKEYKCKVSNKALPAPIEKTISKAKGQPREPQVYTLPPSRDELTKNQVSLTCLVKGFYPSDIAVEWESNGQPENNYKTTPPVLDSDGSFFLYSKLTVDKSRWQQGNVFSCSVMHEALHNHYTQKSLSLSPGKGGGGSGGGGSGGGGSQLYSALANKCCHVGCTKRSLARFCGGGGSGGGGSGGGGSSWMEEVIKLCGRELVRAQIAICGMSTWS
modifications: fusion protein
B2: Fc-YTE-FQQ_hRLX2_15-15A: As Fc_hRLX2_15-15AA with YTE and FQQ mutations in Fc; SEQ ID NO. 26 (protein)
chain: B1 chain with L14F, L15Q, K102Q
modifications: fusion protein
B3: Fc-YTE-TM_hRLX2_15-15A: As Fc_hRLX2_15-15AA with YTE and TM mutations in Fc; SEQ ID NO. 24 (protein)
chain: B1 chain with L14F, L15E, P111S
modifications: fusion protein

Key:
[1] = test system: isoproterenol-induced cardiac hypertrophy; experiment: Isoproterenol-induced cardiac hypertrophy and fibrosis in mice (Example 8); type: in vivo, C57BL/6J male mice; conditions: given concomitantly with isoproterenol 15 mg/kg/day, 2 weeks
Method: A total of 6 study groups with n=8 mice (C57BL/6J male mice) per group were performed. The groups were: vehicle, Fc_hRLX2_15-15AA, isoproterenol, isoproterenol+enalapril, isoproterenol+recombinant human relaxin 2, and isoproterenol+Fc_hRLX2_15-15AA. Drugs and vehicle were delivered by Alzet minipumps (model 1002; rate: 0.25 μl/hr (±0.05), 6 μl one day @37° C.) or subcutaneous injection for Fc_hRLX2_15-15AA.
Isoproterenol was made as follows: A 500 mM solution (123.9 mg/ml) freshly in 0.0002% Na-Asc saline, […] filtered). The final [Iso] concentration in minipump: 15 mg/kg/day=15 mg/247.72/6 μl/1000 g=10.1 mM per gram of body weight (BVV). Vehicle was 0.0002% Na-ascorbate, Sigma catalog #A7631.
Enalapril was made as follows: Enalapril is used as maleate salt, MW of 492.52, Sigma catalog #E6888. A 200 mM stock solution (98.5 mg/ml) freshly in methanol, […] filtered. The final concentration in minipump: 2.5 mg/kg/day=2.5 mg/492.52/6 μl/1000 g=0.846 mM per gram of body weight (BVV), i.e., one minipump for 30 gram of mouse will need 19.0 μl of 200 mM Ena (150 μl×0.846/200 mM×30 g BW).
Isoproterenol+Enalapril: Isoproterenol and enalapril made as described above were included in the pump.
At the end of the study, body weight, heart weight, lung weight, and tibia length were measured. Additionally, histology and collagen assays were performed using the heart samples.
Fibrosis was measured based on the detection of hydroxyproline (Total collagen assay, QuickZyme Biosciences). Histology (H & E and Masson Trichrome) was also carried out on formalin treated heart tissue following 2 weeks of treatments.

[2] = test system: VEGF expression in THP-1 cells; experiment: VEGF mRNA induction in THP-1 cells, quantitative real-time PCR (Example 4); type: cell-based, human; conditions: 0.01, 0.06, and 10 ng/ml; 2.5 h
Method: The ability of the Relaxin 2 fusion polypeptides to induce the expression of VEGF, a known downstream target of Relaxin 2 (Xiao et al., 2013), was assayed. The expression of VEGF RNA in THP-1 cells (Catalogue number TIB-202, ATCC) was analyzed by quantitative real-time PCR. A total of […] was seeded in a 24-well flat bottom plate (Catalogue number 353226, Corning) in 400 μl test media (RPMI-1640 without phenol red, 0.5% FBS, 1% Pen/Strep and 0.05 mM of 2-mercaptoethanol). After 24 h incubation at 37° C., 5% CO2, human relaxin-2 (Catalogue number 3956-RN, R&D Systems) or Fc-hRelaxin-2 fusion polypeptides, were added to the cells in the plate for 2.5 h at 37° C. RNA isolation and purification from THP-1 cells was performed using Qiagen's QiaShredder (Catalogue number 79656, Qiagen) and RNA Plus Mini Kit (Catalogue number 74134, Qiagen), following the manufacturer's protocol. The mRNA concentrations were measured by NanoDrop (Thermofisher) and samples were normalized to the same starting concentration (range between RT-PCR set up; 50-20 ng/μl). […] The relative fold change in VEGF mRNA level was calculated by the comparative Ct method using GAPDH expression for normalization. Results were calculated as fold changes over no treatment control. […] Data was analyzed by paired two tailed t-test utilizing Prism GraphPad, V6.

[3] = intravenous administration, cited from earlier work
[4] = Mouse PK profile, FcRn transgenic mouse, Fc capture and Relaxin detection ELISA (Example 6); type: in vivo; conditions: IV or SC, 6 mg/kg

Row | Molecule | isoproterenol-induced increase in cardiac hypertrophy (HW/TL) [1] | isoproterenol-induced increase in fibrosis (collagen content) [1] | half-life offered by the YTE mutations [4] | also measured
1 | CCOC(=O)[C@H](CCc1ccccc1)N[C@@H](C)C(=O)N1CCC[C@H]1C(=O)O [enalapril] | significantly attenuated | significantly attenuated | – | –
2 | rhRLX2: Recombinant human Relaxin-2, R&D Systems (catalogue 6586-RN-025; 3956-RN in VEGF assay), positive control; mature A/B chain array (chain 1 QLYSALANKCCHVGCTKRSLARFC; chain 2 DSWMEEVIKLCGRELVRAQIAICGMSTWS) | significantly attenuated | significantly attenuated | – | VEGF transcripts in THP-1 cells vs no treatment control [2]: significantly increased
3 | serelaxin | – | – | – | proportion of patients with significant blood pressure drop (>40 mm Hg) [3]: approximately one third; markers of cardiac, renal and hepatic damage and congestion ([3]; patients): improved
4 | B1 | – | – | extended half-life | –
5 | B2 | – | – | extended half-life | –
6 | B3 | – | – | extended half-life | –
